Test results from patent US8609862B2, “Use of an adrenal hormone-modifying agent” (Novartis AG, priority 2010, dated 2013).

Key:
CYP11B1 = target: T1, CYP11B1 (Rattus norvegicus, UniProt P15393); assay: In vivo CYP11B1 assay: plasma corticosterone concentration (PCC) in ACTH-infused conscious rats; details: ACTH infusion; for % Reduction from baseline PCC t = 1 h: 1 h after dosing; for % Reduction from baseline PCC 8 h: 8 h after dosing
T1 construct: from tissue; host or cells: whole animal: conscious male Sprague-Dawley rats under ACTH infusion (the adrenal gland as site of the enzyme comes from the background, b5)
T1 sequence (P15393 25-499): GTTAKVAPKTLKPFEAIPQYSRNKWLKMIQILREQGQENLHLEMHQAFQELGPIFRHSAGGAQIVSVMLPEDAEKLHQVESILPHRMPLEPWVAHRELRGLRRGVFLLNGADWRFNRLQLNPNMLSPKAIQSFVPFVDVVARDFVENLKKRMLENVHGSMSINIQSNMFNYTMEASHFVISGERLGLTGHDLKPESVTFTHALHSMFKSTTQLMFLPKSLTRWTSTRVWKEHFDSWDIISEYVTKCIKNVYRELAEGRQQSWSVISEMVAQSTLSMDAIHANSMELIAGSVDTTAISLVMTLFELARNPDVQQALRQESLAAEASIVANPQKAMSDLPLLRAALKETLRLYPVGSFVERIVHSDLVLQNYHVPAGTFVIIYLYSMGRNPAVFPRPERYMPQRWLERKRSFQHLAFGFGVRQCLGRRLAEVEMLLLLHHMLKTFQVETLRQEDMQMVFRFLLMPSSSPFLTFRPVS
Protocol: (§1) The in vivo effects of compounds on plasma aldosterone concentration (PAC) and plasma glucocorticoid (corticosterone) concentration (PCC) were evaluated in conscious rats.
(§2) Male Sprague-Dawley rats (˜400-600 g body weight) were surgically instrumented with a femoral arterial and venous catheter. The catheters were exteriorized from the lower back through a stainless steel spring and swivel system that enabled the rats to move freely at all times. Rats were allowed at least one week to recover from the surgery before initiating the experiments.
(§3) On the morning of the experiment, a pretreatment blood sample was collected on heparin from the arterial catheter. The blood samples were spun in a refrigerated centrifuge to generate plasma. The plasma was stored frozen at −70° C. until the later measurement of PAC and PCC (by radioimmunoassay). Adrenocorticotropic hormone (ACTH(1-24), referred to herein as ACTH) was then administered as an intravenous (i.v.) bolus (100 ng/kg) followed by a continuous i.v. infusion (30 ng/kg/min) for 9 hours. After one hour of infusion, a baseline (time 0) blood sample was withdrawn from the arterial catheter and processed and stored as described above. The rats were then dosed (typically 0.01 to 100 mg/kg) with the test compound p.o. by oral gavage or parenterally via the arterial catheter (i.a.). Compounds were formulated in an appropriate vehicle (e.g., water (p.o.) or saline (i.a.)) at a physiologically compatible volume (typically 1-2 ml/kg). Additional blood samples were withdrawn at 0.083 (i.a. only), 0.25, 0.5, 1, 2, 3, 4, 5, 6, 7, 8, and 24 hours after dosing with compound and processed and stored as above for later determination of PAC, PCC, and plasma compound concentration (by LC/MS/MS). Oral bioavailability and traditional pharmacokinetic (PK) parameters were estimated from the plasma compound concentrations.
(§4) Based on the plasma compound concentration at each dose, the PK/PD (pharmacodynamic) profiles (reduction of PAC and PCC) of each compound were determined.

CYP11B2 = target: T2, CYP11B2 (Rattus norvegicus, UniProt P30099); assay: In vivo assay: plasma aldosterone concentration (PAC) in ACTH-infused conscious rats; details: ACTH infusion; for % Reduction from baseline PAC t = 1 h: 1 h after dosing; for % Reduction from baseline PAC 8 h: 8 h after dosing
T2 construct: from tissue; host or cells: whole animal: conscious male Sprague-Dawley rats under ACTH infusion (the adrenal gland as site of the enzyme comes from the background, b5)
T2 sequence (P30099 35-510): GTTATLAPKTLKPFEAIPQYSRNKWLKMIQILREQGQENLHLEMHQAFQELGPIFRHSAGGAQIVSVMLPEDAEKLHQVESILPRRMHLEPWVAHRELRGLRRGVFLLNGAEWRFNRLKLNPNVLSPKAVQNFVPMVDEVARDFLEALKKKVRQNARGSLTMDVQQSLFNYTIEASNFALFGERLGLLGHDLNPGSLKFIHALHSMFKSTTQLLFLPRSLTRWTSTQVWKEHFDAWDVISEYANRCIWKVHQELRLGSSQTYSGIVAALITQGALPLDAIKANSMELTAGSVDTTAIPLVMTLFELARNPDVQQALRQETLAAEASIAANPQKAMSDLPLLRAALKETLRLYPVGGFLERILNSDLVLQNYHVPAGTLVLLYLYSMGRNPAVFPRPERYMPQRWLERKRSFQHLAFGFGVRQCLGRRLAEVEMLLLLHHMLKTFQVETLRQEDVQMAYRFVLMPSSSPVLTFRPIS
Protocol: as §1, §2, §3, §4

Rat CYP11B1 = target: T3, Rat CYP11B1 (Rattus norvegicus, UniProt P15393); assay: In vitro rat CYP11B1 assay; assay type: biochemical; details: V79-4 cell homogenate, 11-deoxycorticosterone to corticosterone, SPA
T3 construct: made in house; host or cells: V79-4 cell line #259 (stably selected with geneticin and hygromycin); sonicated homogenate, 500 x g supernatant
T3 sequence (P15393 25-499): T1 sequence (P15393 25-499)
From the text: Complete EDTA-free protease inhibitor tablets were obtained from Roche Applied Science (Indianapolis, Ind.). Dulbecco's modified Eagle medium (DMEM), antibiotic, geneticin, hygromycin, and fetal bovine serum (FBS) were products of Invitrogen (Carlsbad, Calif.). NADPH Regeneration Solution A and Solution B were purchased from BD Biosciences Clontech (Palo Alto, Calif.). Anti-sheep PVT SPA beads and [1,2,6,7-^3H(N)]corticosterone were acquired from Amersham (Piscataway, N.J.) and PerkinElmer (Boston, Mass.), respectively.
For enzyme preparation, #259 cells were seeded in 150 mm dishes in double-selection medium. Following 2 days of growth, cells were washed once with PBS, scraped and collected in PBS, and centrifuged at 1,300 rpm for 6 min. […] The sonication procedure was repeated 3 more times, with a 5 min rest on ice between sonications. The sonicated material was then spun at 500×g for 4 min to remove unbroken cells. The supernatant was brought to a final glycerol concentration of 5%, flash-frozen in liquid nitrogen, and stored at −80° C.
The CYP11B1 assays were performed in 96-well U-bottom non-tissue-culture-treated plates. […] Plates were then centrifuged at 2,400 rpm for 6 min, and 50 μl of supernatant was removed for measurement of corticosterone content by scintillation proximity assay (SPA).
Measurement of corticosterone was performed using a 96-well plate format. […] Anti-sheep PVT SPA beads (50 μl) were then added to each well and incubated overnight at room temperature prior to counting in a Microbeta plate counter. The amount of corticosterone in each sample was calculated by comparing with a standard curve generated using known quantities of the hormone.
Full concentration-response curves of an inhibitor were performed at least 3 times. The IC50 values were derived using a non-linear least squares curve-fitting program from IDBS XLfit.

% Reduction from baseline PCC t = 1 h (CYP11B1; 10 mg/kg p.o.)	% Reduction from baseline PCC 8 h (CYP11B1; 10 mg/kg p.o.)	% Reduction from baseline PAC t = 1 h (CYP11B2; 10 mg/kg p.o.)	% Reduction from baseline PAC 8 h (CYP11B2; 10 mg/kg p.o.)	IC50 (Rat CYP11B1)	% Reduction from baseline PCC t = 1 h (CYP11B1; 3 mg/kg i.a.)	% Reduction from baseline PCC 8 h (CYP11B1; 3 mg/kg i.a.)	% Reduction from baseline PAC t = 1 h (CYP11B2; 3 mg/kg i.a.)	% Reduction from baseline PAC 8 h (CYP11B2; 3 mg/kg i.a.)	% Reduction from baseline PCC t = 1 h (CYP11B1; 30 mg/kg i.a.)	% Reduction from baseline PCC 8 h (CYP11B1; 30 mg/kg i.a.)	% Reduction from baseline PAC t = 1 h (CYP11B2; 30 mg/kg i.a.)	% Reduction from baseline PAC 8 h (CYP11B2; 30 mg/kg i.a.)	SMILES
70%	87%	79%	89%	1 nM	–	–	–	–	–	–	–	–	N#Cc1ccc(C2CCCCc3cncn32)c(Br)c1 (racemic) [3-bromo-4-(6,7,8,9-tetrahydro-5H-imidazo[1,5-a]azepin-5-yl)benzonitrile racemate, 3-bromo-4-(6,7,8,9-tetrahydro-5H-imidazo[1,5-a]azepin-5-yl)benzonitrile]
–	–	–	–	0.3 nM	89%	43%	83%	76%	–	–	–	–	N#Cc1ccc(C2CCCCc3cncn32)c(-c2ccc(F)cc2)c1 (single isomer, unassigned) [4′-fluoro-6-(6,7,8,9-tetrahydro-5H-imidazo[1,5-a]azepin-5-yl)biphenyl-3-carbonitrile]
–	–	–	–	2 nM	–	–	–	–	76%	78%	23%	59%	COc1ccc(CN(C)C(=O)C2(c3ccc(C#N)cc3Cl)CCc3cncn32)cc1 (stereo not drawn) [5-(2-chloro-4-cyanophenyl)-N-(4-methoxybenzyl)-N-methyl-6,7-dihydro-5H-pyrrolo[1,2-c]imidazole-5-carboxamide]
